Blank lines part the entries; values can stand above or below the compound they belong to.
What was measured:
SSTR4 [1] = molecular target: SSTR4 (Homo sapiens, UniProt P31391, Y301A); test: Whole cell binding assay, SSTR4, competition with 125I-Tyr11-SST14, CHO-K1; set-up: expressed in transfected cells; conditions: SSTR4 mutant Y301^7.43A; mean ± SEM
Method: (§1) For SSTR2 and SSTR4, CHO-K1 cells were cultured in F12 medium with 10% FBS and seeded at a density of 30,000 cells/well in Isoplate-96 plates (PerkinElmer). Twenty-four hours after transfection with the WT or mutant SSTR2/SSTR4, CHO-K1 cells were washed twice and incubated with blocking buffer (F12 supplemented with 25 mM HEPES and 0.1% (w/v) BSA, pH 7.4) for 2 h at 37 °C. […] Following incubation, cells were washed three times with ice-cold PBS and lysed by 50 μL lysis buffer (PBS supplemented with 20 mM Tris-HCl, 1% Triton X-100, pH 7.4). The radioactivity was subsequently counted (counts/min, CPM) in a scintillation counter (MicroBeta[2] Plate Counter, PerkinElmer) using a scintillation cocktail (OptiPhaseSuperMix, PerkinElmer). Data were analyzed by nonlinear regression using GraphPad PRISM 8.
(§2) aMutants represent that all mutations were introduced separately into the WT receptors
and expressed in CHO K1 cells.
(§3) bThe IC50 ratio was shown as IC50(mutant)/IC50(WT), indicating the shift between the WT
(§4) and mutant curves, reflecting the effect of the mutations on ligand binding.
(§5) cData are shown as mean ± S.E.M. form at least three independent experiments
(§6) performed in technical triplicate. One-way ANOVA was performed followed by
(§7) Dunnett’s post-test and compared with WT.
(§8) d The span is defined as the window between the maximal agonists response (Emax) and
(§9) e Sample size; the number of independent experiments performed in technical triplicate.

SSTR4 [2] = molecular target: SSTR4 (Homo sapiens, UniProt P31391, Y276A); test: as above; set-up: expressed in transfected cells; conditions: SSTR4 mutant Y276^6.52A; mean ± SEM
Method: as §1, §2
and expressed in CHO K1 cells.
as §3, §4, §5, §6, §7, §8, §9

SSTR4 [3] = molecular target: SSTR4 (Homo sapiens, UniProt P31391, M130A); test: as above; set-up: expressed in transfected cells; conditions: SSTR4 mutant M130^3.36A; mean ± SEM
Method: as §1, §2
and expressed in CHO K1 cells.
as §3, §4, §5, §6, §7, §8, §9

SSTR4 [4] = molecular target: SSTR4 (Homo sapiens, UniProt P31391, D126A); test: as above; set-up: expressed in transfected cells; conditions: SSTR4 mutant D126^3.32A; mean ± SEM
Method: as §1, §2
and expressed in CHO K1 cells.
as §3, §4, §5, §6, §7, §8, §9

SSTR4 [5] = molecular target: SSTR4 (Homo sapiens, UniProt P31391); test: as above; set-up: expressed in transfected cells; conditions: WT SSTR4, mean ± SEM
Method: as §1, §2
and expressed in CHO K1 cells.
as §3, §4, §5, §6, §7, §8, §9

SSTR4 [6] = molecular target: SSTR4 (Homo sapiens, UniProt P31391, F275A); test: as above; set-up: expressed in transfected cells; conditions: SSTR4 mutant F275^6.51A; mean ± SEM
Method: as §1, §2
and expressed in CHO K1 cells.
as §3, §4, §5, §6, §7, §8, §9

SSTR4 [7] = molecular target: SSTR4 (Homo sapiens, UniProt P31391, V264F); test: as above; set-up: expressed in transfected cells; conditions: Construct 4 SSTR4, mean ± SEM
Method: as §1, §2
and expressed in CHO K1 cells.
as §3, §4, §5, §6, §7, §8, §9

SSTR4 [8] = molecular target: SSTR4 (Homo sapiens, UniProt P31391, Q279A); test: as above; set-up: expressed in transfected cells; conditions: SSTR4 mutant Q279^6.55A; mean ± SEM
Method: as §1, §2
and expressed in CHO K1 cells.
as §3, §4, §5, §6, §7, §8, §9

SSTR4 [9] = molecular target: SSTR4 (Homo sapiens, UniProt P31391, T215A); test: as above; set-up: expressed in transfected cells; conditions: SSTR4 mutant T215^5.42A; mean ± SEM
Method: as §1, §2
and expressed in CHO K1 cells.
as §3, §4, §5, §6, §7, §8, §9

SSTR4 [10] = molecular target: SSTR4 (Homo sapiens, UniProt P31391, N199A); test: as above; set-up: expressed in transfected cells; conditions: SSTR4 mutant N199^ECL2A; mean ± SEM
Method: as §1, §2
and expressed in CHO K1 cells.
as §3, §4, §5, §6, §7, §8, §9

SSTR2 [11] = molecular target: T1, SSTR2 (Homo sapiens, UniProt P30874, I284A); test: cAMP accumulation assay (agonist-induced inhibition of forskolin-stimulated cAMP), SSTR2, HEK293F; assay type: cell-based; conditions: SSTR2 mutant I284^ECL3A; mean ± SEM;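 also: transiently transfected cells exposed to 2 µM forskolin and a ligand concentration series for 40 min at room temperature in IBMX-containing HBSS, then cAMP quantified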
T1 construct: expressed in transfected cells; host or cells: HEK293F
Method: (§10) HEK293F cells were transiently transfected with WT or mutant SSTR2/SSTR4 using transfection reagent (PEI MAX 2000, Polysciences) and incubated at 37 °C in 5% CO2. Forty-eight hours after transfection, cells were centrifuged and resuspended in stimulation buffer (Hanks’ balanced salt solution (HBSS) supplemented with 5 mM HEPES, 0.5 mM IBMX and 0.1% (w/v) bovine serum albumin (BSA), pH 7.4) to a density of 200,000 cells/mL and added to 384-well white plates (PerkinElmer, 1000 cells/well). cAMP accumulation was measured by a LANCE Ultra cAMP kit (PerkinElmer) according to the manufacturer’s instructions. In brief, transfected cells were incubated for 40 min in stimulation buffer with 2.5 μL forskolin (SSTR2: 2 μM; SSTR4: 4 μM) and gradient concentration of ligand at RT. The reactions were stopped by addition of lysis buffer containing 5 μL Eu-cAMP tracer and 5 μL ULight-anti-cAMP. Plates were then incubated for 60 min at RT and time-resolved FRET signals were measured at 620 nm and 665 nm by an EnVision multilabel plate reader (PerkinElmer). Data were analyzed in GraphPad PRISM 8 and all values were normalized to the WT for each ligand. All outcomes were repeated at least three times.
(§11) aMutants represent that mutations were introduced separately into the WT receptors and
(§12) transiently expressed in HEK 293F cells.
(§13) bThe EC50 ratio was shown as EC50(mutant)/EC50(WT), indicating the shift between the WT
(§14) and mutant curves, reflecting the effect of the mutations on receptor signaling.
(§15) cData are shown as mean ± S.E.M. from at least three independent experiments
as §6
(§16) Dunnett’s post-test and compared with WT. The P value was defined as: *P<0.05;
as §8, §9
(§17) f Receptor expression level of HEK 293F cells was determined independently by flow
(§18) cytometry with anti-FLAG antibody and shown as per cent compared to the WT.

SSTR2 [12] = molecular target: T2, SSTR2 (Homo sapiens, UniProt P30874, K291A); test: as above; assay type: cell-based; conditions: SSTR2 mutant K291^7.32A; mean ± SEM
T2 construct: expressed in transfected cells; host or cells: HEK293F
Method: as §10, §11, §12, §13, §14, §15, §6, §16, §8, §9, §17, §18

SSTR2 [13] = molecular target: T3, SSTR2 (Homo sapiens, UniProt P30874, V298A); test: as above; assay type: cell-based; conditions: SSTR2 mutant V298^7.39A; mean ± SEM
T3 construct: expressed in transfected cells; host or cells: HEK293F
Method: as §10, §11, §12, §13, §14, §15, §6, §16, §8, §9, §17, §18

SSTR2 [14] = test: as above; assay type: cell-based, human; conditions: EC50(mutant)/EC50(WT)
Method: as §10, §11, §12, §13, §14, §15, §6, §16, §8, §9, §17, §18

SSTR2 [15] = molecular target: T4, SSTR2 (Homo sapiens, UniProt P30874, N276A); test: as above; assay type: cell-based; conditions: SSTR2 mutant N276^6.55A; mean ± SEM
T4 construct: expressed in transfected cells; host or cells: HEK293F
Method: as §10, §11, §12, §13, §14, §15, §6, §16, §8, §9, §17, §18

SSTR2 [16] = molecular target: T5, SSTR2 (Homo sapiens, UniProt P30874, S316D/V106E); test: as above; assay type: cell-based; conditions: Construct 2* SSTR2; mean ± SEM
T5 construct: expressed in transfected cells; host or cells: HEK293F
Method: as §10, §11, §12, §13, §14, §15, §6, §16, §8, §9, §17, §18

SSTR2 [17] = molecular target: T6, SSTR2 (Homo sapiens, UniProt P30874, P286A); test: as above; assay type: cell-based; conditions: SSTR2 mutant P286^ECL3A; mean ± SEM
T6 construct: expressed in transfected cells; host or cells: HEK293F
Method: as §10, §11, §12, §13, §14, §15, §6, §16, §8, §9, §17, §18

SSTR2 [18] = molecular target: T7, SSTR2 (Homo sapiens, UniProt P30874, F208A); test: as above; assay type: cell-based; conditions: SSTR2 mutant F208^5.38A; mean ± SEM
T7 construct: expressed in transfected cells; host or cells: HEK293F
Method: as §10, §11, §12, §13, §14, §15, §6, §16, §8, §9, §17, §18

SSTR2 [19] = molecular target: SSTR2 (Homo sapiens, UniProt P30874, F275A); test: Whole cell binding assay, SSTR2, competition with 125I-Tyr11-SST14, CHO-K1; conditions: SSTR2 mutant F275^6.54A; mean ± SEM;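 also: Cell-bound radioactivity in lysed CHO-K1 cells read by scintillation counting, each mutation introduced singly into the WT receptor, at least three independent experiments run in technical triplicate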
Method: as §1, §2
and expressed in CHO K1 cells.
as §3, §4, §5, §6, §7, §8, §9

SSTR2 [20] = test: as above; conditions: for IC50 ratio: IC50(mutant)/IC50(WT)
Method: as §1, §2
and expressed in CHO K1 cells.
as §3, §4, §5, §6, §7, §8, §9

SSTR2 [21] = molecular target: SSTR2 (Homo sapiens, UniProt P30874, Y302A); test: as above; conditions: SSTR2 mutant Y302^7.43A; mean ± SEM
Method: as §1, §2
and expressed in CHO K1 cells.
as §3, §4, §5, §6, §7, §8, §9

SSTR2 [22] = molecular target: SSTR2 (Homo sapiens, UniProt P30874, T212A); test: as above; conditions: SSTR2 mutant T212^5.42A; mean ± SEM
Chain of SSTR2 (Homo sapiens, UniProt P30874, T212A) (P30874 whole entry T212A): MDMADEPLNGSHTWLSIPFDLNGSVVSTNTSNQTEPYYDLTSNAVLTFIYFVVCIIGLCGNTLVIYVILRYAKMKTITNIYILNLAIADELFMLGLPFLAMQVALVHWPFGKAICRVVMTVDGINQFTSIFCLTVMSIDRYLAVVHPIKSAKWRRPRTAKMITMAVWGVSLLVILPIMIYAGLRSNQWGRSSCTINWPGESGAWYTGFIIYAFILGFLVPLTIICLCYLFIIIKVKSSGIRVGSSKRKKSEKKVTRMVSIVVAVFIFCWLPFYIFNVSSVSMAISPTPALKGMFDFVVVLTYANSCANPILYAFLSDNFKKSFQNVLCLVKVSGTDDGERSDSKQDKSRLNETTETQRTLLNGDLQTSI
Method: as §1, §2
and expressed in CHO K1 cells.
as §3, §4, §5, §6, §7, §8, §9

Chain of SSTR4 (Homo sapiens, UniProt P31391) (P31391 whole entry): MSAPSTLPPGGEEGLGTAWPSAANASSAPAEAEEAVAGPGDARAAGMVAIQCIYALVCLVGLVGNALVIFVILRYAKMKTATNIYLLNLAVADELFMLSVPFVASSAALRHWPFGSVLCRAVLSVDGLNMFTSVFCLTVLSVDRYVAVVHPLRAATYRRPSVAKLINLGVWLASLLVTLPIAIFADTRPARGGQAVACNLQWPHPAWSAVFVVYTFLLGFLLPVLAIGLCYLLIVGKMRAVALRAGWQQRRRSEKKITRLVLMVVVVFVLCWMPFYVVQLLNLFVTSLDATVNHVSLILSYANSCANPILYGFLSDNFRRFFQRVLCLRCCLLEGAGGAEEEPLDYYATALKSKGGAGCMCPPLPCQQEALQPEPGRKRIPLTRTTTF
Chain of SSTR4 (Homo sapiens, UniProt P31391, V264F) (P31391 1-328 V264F): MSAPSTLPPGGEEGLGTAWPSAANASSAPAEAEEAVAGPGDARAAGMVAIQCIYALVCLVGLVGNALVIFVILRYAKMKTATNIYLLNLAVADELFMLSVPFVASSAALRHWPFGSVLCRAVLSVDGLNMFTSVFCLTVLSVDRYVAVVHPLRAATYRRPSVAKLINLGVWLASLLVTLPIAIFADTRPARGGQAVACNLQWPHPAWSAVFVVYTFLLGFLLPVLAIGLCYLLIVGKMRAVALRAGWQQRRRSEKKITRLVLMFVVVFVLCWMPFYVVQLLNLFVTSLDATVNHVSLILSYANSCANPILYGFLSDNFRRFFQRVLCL
T5 sequence (P30874 1-359 V106E/S316D): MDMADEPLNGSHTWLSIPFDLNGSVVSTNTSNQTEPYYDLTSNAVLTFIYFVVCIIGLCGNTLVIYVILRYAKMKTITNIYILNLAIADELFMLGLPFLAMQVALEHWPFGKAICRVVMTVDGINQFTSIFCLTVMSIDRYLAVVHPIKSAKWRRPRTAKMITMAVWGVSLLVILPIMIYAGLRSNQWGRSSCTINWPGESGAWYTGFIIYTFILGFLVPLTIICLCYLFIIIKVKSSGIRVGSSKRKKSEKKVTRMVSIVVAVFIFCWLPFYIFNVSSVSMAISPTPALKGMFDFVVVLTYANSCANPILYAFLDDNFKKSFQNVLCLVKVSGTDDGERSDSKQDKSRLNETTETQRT
T7 sequence (P30874 whole entry F208A): as the sequence (P30874 whole entry T212A) above, with F208A, A212T counted along it
T3 sequence (P30874 whole entry V298A): as the sequence (P30874 whole entry T212A) above, with A212T, V298A counted along it
Chain of SSTR4 (Homo sapiens, UniProt P31391, T215A) (P31391 whole entry T215A): as the sequence (P31391 whole entry) above, with T215A counted along it
T1 sequence (P30874 whole entry I284A): as the sequence (P30874 whole entry T212A) above, with A212T, I284A counted along it
Chain of SSTR2 (Homo sapiens, UniProt P30874, F275A) (P30874 whole entry F275A): as the sequence (P30874 whole entry T212A) above, with A212T, F275A counted along it
T4 sequence (P30874 whole entry N276A): as the sequence (P30874 whole entry T212A) above, with A212T, N276A counted along it
Chain of SSTR4 (Homo sapiens, UniProt P31391, Q279A) (P31391 whole entry Q279A): as the sequence (P31391 whole entry) above, with Q279A counted along it
T6 sequence (P30874 whole entry P286A): as the sequence (P30874 whole entry T212A) above, with A212T, P286A counted along it
Chain of SSTR4 (Homo sapiens, UniProt P31391, N199A) (P31391 whole entry N199A): as the sequence (P31391 whole entry) above, with N199A counted along it
Chain of SSTR4 (Homo sapiens, UniProt P31391, F275A) (P31391 whole entry F275A): as the sequence (P31391 whole entry) above, with F275A counted along it
Chain of SSTR4 (Homo sapiens, UniProt P31391, D126A) (P31391 whole entry D126A): as the sequence (P31391 whole entry) above, with D126A counted along it
T2 sequence (P30874 whole entry K291A): as the sequence (P30874 whole entry T212A) above, with A212T, K291A counted along it
Chain of SSTR2 (Homo sapiens, UniProt P30874, Y302A) (P30874 whole entry Y302A): as the sequence (P30874 whole entry T212A) above, with A212T, Y302A counted along it
Chain of SSTR4 (Homo sapiens, UniProt P31391, M130A) (P31391 whole entry M130A): as the sequence (P31391 whole entry) above, with M130A counted along it
Chain of SSTR4 (Homo sapiens, UniProt P31391, Y276A) (P31391 whole entry Y276A): as the sequence (P31391 whole entry) above, with Y276A counted along it
Chain of SSTR4 (Homo sapiens, UniProt P31391, Y301A) (P31391 whole entry Y301A): as the sequence (P31391 whole entry) above, with Y301A counted along it

- Span (SSTR4 [1]): 15±5 % of WT
- Span (SSTR4 [2]): 9±3 % of WT
- Span (SSTR4 [3]): 12±4 % of WT
- Span (SSTR4 [4]): 12±3 % of WT
- pKi ± SEM (SSTR4 [5]; competition with 125I-SST-14): 9.21 ± 0.14
- Span (SSTR4 [5]): 100±6 % of WT
- pIC50 ± SEM (SSTR4 [5]; at least three independent experiments): 9.21±0.14
- Span (SSTR4 [6]): 11 ± 4 % of WT
- pKi ± SEM (SSTR4 [7]; competition with 125I-SST-14): 9.47
- Span (SSTR4 [7]): 96±9 % of WT
- pIC50 ± SEM (SSTR4 [7]): 9.47±0.25
- Span (SSTR4 [8]): 26±4 % of WT
- pIC50 ± SEM (SSTR4 [8]): 8.93±0.38
- Span (SSTR4 [9]): 67±4 % of WT
- pIC50 ± SEM (SSTR4 [9]): 9.08±0.16
- Span (SSTR4 [10]): 13±3 % of WT
SMILES: Cc1ccc(S(=O)(=O)N[C@@H](CCN)C(=O)N[C@@H](Cc2ccccc2)C(N)=O)c2ccccc12 [J-2156]

- Span (SSTR2 [11]): 84±7 % of WT
- pEC50 ± SEM (SSTR2 [11]): 9.07±0.22
- pEC50 ± SEM (SSTR2 [12]): 9.02±0.12
- Span (SSTR2 [13]): 131±9 % of WT
- pEC50 ± SEM (SSTR2 [13]): 8.68±0.16
- EC50 ratio (SSTR2 [14]; Construct 2* SSTR2): 2
- EC50 ratio (SSTR2 [14]; SSTR2 mutant D122^3.32A): 191
- EC50 ratio (SSTR2 [14]; SSTR2 mutant F208^5.38A): 2
- EC50 ratio (SSTR2 [14]; SSTR2 mutant F272^6.51A): 64
- EC50 ratio (SSTR2 [14]; SSTR2 mutant F275^6.54A): 5
- EC50 ratio (SSTR2 [14]; SSTR2 mutant F294^7.35A): 20
- EC50 ratio (SSTR2 [14]; SSTR2 mutant I284^ECL3A): 4
- EC50 ratio (SSTR2 [14]; SSTR2 mutant K291^7.32A): 4
- EC50 ratio (SSTR2 [14]; SSTR2 mutant N276^6.55A): 15
- EC50 ratio (SSTR2 [14]; SSTR2 mutant P286^ECL3A): 7
- EC50 ratio (SSTR2 [14]; SSTR2 mutant Q102^2.63A): 2
- EC50 ratio (SSTR2 [14]; SSTR2 mutant Q126^3.36A): 3
- EC50 ratio (SSTR2 [14]; SSTR2 mutant T194^ECL2A): 3
- EC50 ratio (SSTR2 [14]; SSTR2 mutant T212^5.42A): 5
- EC50 ratio (SSTR2 [14]; SSTR2 mutant V298^7.39A): 10
- EC50 ratio (SSTR2 [14]; SSTR2 mutant Y205^5.35A): 0.05
- EC50 ratio (SSTR2 [14]; SSTR2 mutant Y302^7.43A): 10
- Span (SSTR2 [15]): 80±5 % of WT
- pEC50 ± SEM (SSTR2 [15]): 8.47±0.15
- Span (SSTR2 [16]): 76±6 % of WT
- pEC50 ± SEM (SSTR2 [16]): 9.28±0.17
- Span (SSTR2 [17]): 96±7 % of WT
- pEC50 ± SEM (SSTR2 [17]): 8.83±0.18
- Span (SSTR2 [18]): 81±5 % of WT
- pEC50 ± SEM (SSTR2 [18]): 9.34±0.13
- Span (SSTR2 [19]): 33±3 % of WT
- pIC50 ± SEM (SSTR2 [19]): 7.57±0.23
- IC50 ratio (SSTR2 [20]; Construct 2 SSTR2): 3
- IC50 ratio (SSTR2 [20]; SSTR2 mutant F275^6.54A): 9
- IC50 ratio (SSTR2 [20]; SSTR2 mutant Q102^2.63A): 152
- IC50 ratio (SSTR2 [20]; SSTR2 mutant T194^ECL2A): 12
- IC50 ratio (SSTR2 [20]; SSTR2 mutant T212^5.42A): 1
- IC50 ratio (SSTR2 [20]; SSTR2 mutant Y205^5.35A): 0.4
- IC50 ratio (SSTR2 [20]; WT SSTR2): 1
- Span (SSTR2 [21]): 15±2 % of WT
- Span (SSTR2 [22]): 94±5 % of WT
- pIC50 ± SEM (SSTR2 [22]): 8.49±0.11
SMILES: C[C@@H](c1c[nH]c2ccccc12)[C@@H](NC(=O)N1CCC(n2c(=O)[nH]c3ccccc32)CC1)C(=O)N[C@@H](CCCCN)C(=O)OC(C)(C)C [L-054,522]
- effect of construct modifications on binding and signaling (SSTR2 [20]; crystallization construct vs WT SSTR2): little effect on L-054,522 binding and signaling

— article PMC9343605, “Structural insights into ligand recognition and selectivity of somatostatin receptors” (Cell Research, 2022)
